From patent US7345065B2, “Methods and compositions for alleviating pain” (Allergan, Inc., priority 2002, dated 2008) come the findings set out here.

SMILES strings stand for the structures.

What all share (assay type): cell-based
The target of one test is T1, rat α-2B (RNG gene) (Rattus norvegicus, UniProt P19328).
T1 construct: expressed in transfected cells; host or cells: NIH-3T3
T1 sequence (P19328 1-453): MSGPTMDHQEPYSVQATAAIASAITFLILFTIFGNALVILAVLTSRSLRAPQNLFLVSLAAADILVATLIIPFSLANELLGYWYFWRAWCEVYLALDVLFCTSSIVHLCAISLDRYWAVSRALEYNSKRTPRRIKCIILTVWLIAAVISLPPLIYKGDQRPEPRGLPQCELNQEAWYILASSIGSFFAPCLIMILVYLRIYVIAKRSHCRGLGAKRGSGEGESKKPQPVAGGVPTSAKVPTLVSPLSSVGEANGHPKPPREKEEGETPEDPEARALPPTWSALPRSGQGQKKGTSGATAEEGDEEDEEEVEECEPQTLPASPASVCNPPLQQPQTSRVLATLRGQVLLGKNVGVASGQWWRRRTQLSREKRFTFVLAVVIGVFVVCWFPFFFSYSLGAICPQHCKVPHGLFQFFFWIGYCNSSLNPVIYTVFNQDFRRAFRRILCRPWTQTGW
Description: RSAT assay, α-2B receptor. The following applies: for EC50: NA = not active (EC50 ≧ 10,000); for fold greater activity at the α-2B receptor than the α-2C receptor: RSAT; for Emax: read-out: % efficacy 2B. The source says:
(§1) Agonist and antagonist activity, including selectivity and specificity, can be characterized using any of a variety of routine assays, including, without limitation, Receptor Selection and Amplification Technology (RSAT) assays (Messier et al., Pharmacol. Toxicol. 76:308-11 (1995); Conklin et al., Nature 363:274-6 (1993)); cyclic AMP assays (Shimizu et al., J. Neurochem. 16:1609-1619 (1969)); and cytosensor microphysiometry assays (Neve et al., J. Biol. Chem. 267:25748-25753 (1992)). Such assays generally are performed using cells that naturally express only a single α-adrenergic receptor subtype, or using transfected cells expressing a single recombinant α-adrenergic receptor subtype. The adrenergic receptor can be a human receptor or homolog thereof having a similar pharmacology. As disclosed herein, RSAT assays were performed using cells transiently transfected with human α-2A (c10 gene); rat α-2B (RNG gene); human α-2C (c4 gene); bovine α-1A; hamster α-1B; and rat α-1D.
(§2) The RSAT assay measures receptor-mediated loss of contact inhibition resulting in selective proliferation of receptor-containing cells in a mixed population of confluent cells. The increase in cell number is assessed with an appropriate detectable marker gene such as β-galactosidase, if desired, in a high throughput or ultra high throughput assay format. Receptors that activate the G protein, Gq, elicit the proliferative response. α-adrenergic receptors, which normally couple to Gi, activate the RSAT response when coexpressed with a hybrid Gq protein containing a Gi receptor recognition domain, designated Gq/i5.
As an example, an RSAT assay can be performed essentially as follows. NIH-3T3 cells are plated at a density of 2×10^6 cells in 15 cm dishes and maintained in Dulbecco's modified Eagle's medium supplemented with 10% calf serum. One day later, cells are cotransfected by calcium phosphate precipitation with mammalian expression plasmids encoding p-SV-β-galactosidase (5-10 μg), receptor (1-2 μg) and G protein (1-2 μg). Carrier DNA, for example 40 μg salmon sperm DNA, also can be included to increase transfection efficiency. Fresh media is added on the following day; one to two days later, cells are harvested and frozen in 50 assay aliquots. Transfected cells are thawed, and 100 μl of cells added to 100 μl aliquots of compound to be tested, with various concentrations assayed in triplicate, for example, in 96-well plates. Incubation continues for 72 to 96 hours at 37°. After washing with phosphate-buffered saline, β-galactosidase activity is determined by adding 200 μl of chromogenic substrate (3.5 mM O-nitrophenyl-β-D-galactopyranoside/0.5% NP-40 in phosphate buffered saline), incubating overnight at 30°, and measuring optical density at 420 nm. The absorbancy is a measure of enzyme activity, which depends on cell number and reflects receptor-mediated cell proliferation. The EC50 and maximal effect (efficacy) of each drug at each receptor is determined.

A further test has as its target T2, rat α-1D (Rattus norvegicus, UniProt P23944).
T2 construct: expressed in transfected cells; host or cells: NIH-3T3
T2 sequence (P23944 1-561): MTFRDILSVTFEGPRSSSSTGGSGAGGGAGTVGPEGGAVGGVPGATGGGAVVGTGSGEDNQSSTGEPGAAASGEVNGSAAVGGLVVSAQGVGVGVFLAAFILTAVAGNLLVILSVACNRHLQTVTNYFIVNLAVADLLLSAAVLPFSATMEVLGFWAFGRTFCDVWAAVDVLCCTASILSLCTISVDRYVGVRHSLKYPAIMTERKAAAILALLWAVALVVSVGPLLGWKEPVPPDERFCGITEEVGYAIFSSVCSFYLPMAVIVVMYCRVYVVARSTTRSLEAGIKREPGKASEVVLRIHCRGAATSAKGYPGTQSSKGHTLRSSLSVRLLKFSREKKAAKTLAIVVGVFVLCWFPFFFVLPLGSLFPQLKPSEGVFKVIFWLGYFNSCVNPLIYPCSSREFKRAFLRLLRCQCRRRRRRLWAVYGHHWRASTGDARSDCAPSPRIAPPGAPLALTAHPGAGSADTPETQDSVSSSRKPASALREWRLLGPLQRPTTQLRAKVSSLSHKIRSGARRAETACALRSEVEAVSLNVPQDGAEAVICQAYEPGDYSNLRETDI
The test is described as follows: RSAT assay, α-1D receptor. Conditions: NA = not active (EC50 ≧ 10,000).
Excerpt: as §1, §2
As an example, an RSAT assay can be performed essentially as follows. […] After washing with phosphate-buffered saline, β-galactosidase activity is determined by adding 200 μl of chromogenic substrate (3.5 mM O-nitrophenyl-β-D-galactopyranoside/0.5% NP-40 in phosphate buffered saline), incubating overnight at 30°, and measuring optical density at 420 nm. […] The EC50 and maximal effect (efficacy) of each drug at each receptor is determined.

The next test concerns the target T3, bovine α-1A (Bos taurus, UniProt P18130).
T3 construct: expressed in transfected cells; host or cells: NIH-3T3
T3 sequence (P18130 1-466): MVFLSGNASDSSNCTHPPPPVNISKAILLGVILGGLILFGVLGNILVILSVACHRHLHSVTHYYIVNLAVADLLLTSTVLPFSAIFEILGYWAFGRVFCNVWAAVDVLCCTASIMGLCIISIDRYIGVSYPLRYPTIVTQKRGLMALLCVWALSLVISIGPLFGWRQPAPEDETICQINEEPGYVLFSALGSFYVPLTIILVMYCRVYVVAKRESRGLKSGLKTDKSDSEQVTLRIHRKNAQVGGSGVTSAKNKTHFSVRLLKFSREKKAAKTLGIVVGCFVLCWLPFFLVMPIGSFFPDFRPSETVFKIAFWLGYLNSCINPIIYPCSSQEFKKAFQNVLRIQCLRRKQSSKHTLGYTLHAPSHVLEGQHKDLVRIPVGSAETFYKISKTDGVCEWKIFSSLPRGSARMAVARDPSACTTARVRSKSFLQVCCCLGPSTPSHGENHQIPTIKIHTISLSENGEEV
The test is described as follows: RSAT assay, α-1A receptor. Conditions: NA = not active (EC50 ≧ 10,000).
Excerpt: as §1, with “The adrenergic receptor can be a human receptor or homolog thereof having a similar pharmacology. As disclosed herein, RSAT assays were performed using cells transiently transfected with human α-2A (c10 gene); rat α-2B (RNG gene); human α-2C (c4 gene); bovine α-1A; hamster α-1B; and rat α-1D.” left out
The RSAT assay measures receptor-mediated loss of contact inhibition resulting in selective proliferation of receptor-containing cells in a mixed population of confluent cells. The increase in cell number is assessed with an appropriate detectable marker gene such as β-galactosidase, if desired, in a high throughput or ultra high throughput assay format. […]
As an example, an RSAT assay can be performed essentially as follows. […] After washing with phosphate-buffered saline, β-galactosidase activity is determined by adding 200 μl of chromogenic substrate (3.5 mM O-nitrophenyl-β-D-galactopyranoside/0.5% NP-40 in phosphate buffered saline), incubating overnight at 30°, and measuring optical density at 420 nm. […]

As for `O=c1[nH]cc(CC2CCc3cc(F)ccc32)[nH]1` (stereo not shown) [Compound 4], on rat α-2B (RNG gene), the EC50 (usually the concentration that produces a half-maximal response) came out at 15 nM, the “fold greater activity at the α-2B receptor than the α-2C receptor” value is “more than 10 fold” and the Emax stood at 100%. This compound registered an EC50 on rat α-1D of more than 2000 nM.

Consider `S=c1[nH]cc(CC2CC=CC2)[nH]1` [Compound 11], for which the EC50 at rat α-2B (RNG gene) is 42 nM; at bovine α-1A it was 1710 nM; on rat α-1D it was more than 2000 nM. The Emax at rat α-2B (RNG gene) came to 80%.

In the case of `O=C1c2ccccc2CCC1Cc1c[nH]c(=S)[nH]1` (racemic) [Compound 3], at rat α-2B (RNG gene), a half-maximal effect (EC50) was put at 24 nM, the “fold greater activity at the α-2B receptor than the α-2C receptor” value is “about 100 fold” and the Emax amounted to 90%. Further, at bovine α-1A, the EC50 was more than 2000 nM. At rat α-1D, this compound came in with an EC50 of more than 2000 nM.
